Data: patent US20260256792A1, “TREATMENT OF CHRONIC SPONTANEOUS URTICARIA BY ADMINISTERING (R)-2-[3-[4-AMINO-3-(2-FLUORO-4-PHENOXY-PHENYL)PYRAZOLO[3,4-D]PYRIMIDIN-1-YL]PIPERIDINE-1-CARBONYL]-4-METHYL-4-[4-(OXETAN-3-YL)PIPERAZIN-1-YL]PENT-2-ENENITRILE” (priority 2023, published 2026)

Tested on: moderate-to-severe chronic spontaneous urticaria (CSU)
Test: Phase 2 CSU study: urticaria activity score over 7 days (UAS7)
Assay type: in vivo, human
Settings: for Change from Baseline in UAS7 at Week 12: Mean (SD) / Change from Baseline in UAS7 at Week 12: LS Mean Diff vs. placebo (95% CI) / Change from Baseline in UAS7 at Week 12: LS Mean (SE): Omalizumab-Naïve; for Imputed non-responder n (%), UAS7 = 0 / Imputed non-responder n (%), UAS7 ≤6 / Non-responder n (%), UAS7 = 0 / Non-responder n (%), UAS7 ≤6 / OR for rilzabrutinib vs. placebo, UAS7 = 0 / OR for rilzabrutinib vs. placebo, UAS7 ≤6 / RRD (%) for rilzabrutinib vs. placebo, UAS7 = 0 / RRD (%) for rilzabrutinib vs. placebo, UAS7 ≤6 / Responder n (%), UAS7 = 0 / Responder n (%), UAS7 ≤6: Omalizumab-naïve
From the text: The study comprises a 12 week, randomized, double-blind, placebo-controlled, multi-center, dose-ranging efficacy and safety phase, followed by a 40 week open label extension (OLE) phase (see FIG. 1). The study consists of three phases and an optional OLE phase. […] Clinically, CSU is characterized by the spontaneous and recurrent appearance of pruritic hives. The proposed primary endpoints were the UAS7 at Week 12 in EU and EU reference countries and the ISS7 in the US. Regardless of where a participant was from, all assessments were the same. The UAS7 score is a composite score containing both the HSS7 and the ISS7. This allowed a global assessment of the two key components of urticaria: hives and itch. […] The UAS is a validated PRO measure. […] The daily UAS scores range from 0 to 6 point/day. […] Patients were to complete the UAS using the e-diary. […] The following secondary endpoints were to be analyzed using the same approach as for the primary endpoint: • Change from baseline in UAS7 at Week 4 • Change from baseline in UAS7 at Week 12 (for US and US reference countries) • Change from baseline in ISS7 at Week 12 (except US and US reference countries) • Change from baseline in HSS7 at Week 12 The following responder secondary endpoints were to be analyzed using the Cochran-Mantel-Haenszel test adjusted by region: • Proportion of participants with UAS7<6 at Week 12 • Proportion of participants with UAS7=0 at Week 12 Participants who received selected prohibited medications and/or rescue medications were to be considered as non-responders for time points after the medication usage. For other participants, all available data including those collected during the off-treatment period were to be used to determine the responder/non-responder status. Missing data were to be considered as non-responders.

[1] = Region Latin America, 400 mg TID
[2] = Region Western Countries, 400 mg BID
[3] = Region Western Countries, 400 mg QPM
[4] = Region Western Countries, 400 mg TID

## CC(C)(C=C(C#N)C(=O)N1CCC[C@@H](n2nc(-c3ccc(Oc4ccccc4)cc3F)c3c(N)ncnc32)C1)N1CCN(C2COC2)CC1 [rilzabrutinib, (R)-2-[3-[4-amino-3-(2-fluoro-4-phenoxy-phenyl)pyrazolo[3,4-d]pyrimidin-1-yl]piperidine-1-carbonyl]-4-methyl-4-[4-(oxetan-3-yl)piperazin-1-yl]pent-2-enenitrile]
Region Latin America, 400 mg QPM
  Change from Baseline in UAS7 at Week 12: Mean (SD): −13.28 (10.78)
[1]
  Change from Baseline in UAS7 at Week 12: LS Mean Diff vs. placebo (95% CI): 0.38 (−10.12, 10.88)
  Change from Baseline in UAS7 at Week 12: Mean (SD): −14.07 (12.07)
[2]
  Change from Baseline in UAS7 at Week 12: LS Mean (SE): −20.19 (3.23)
  Change from Baseline in UAS7 at Week 12: LS Mean Diff vs. placebo (95% CI): −12.21 (−21.37, −3.06)
  Change from Baseline in UAS7 at Week 12: Mean (SD): −20.62 (10.65)
[3]
  Change from Baseline in UAS7 at Week 12: LS Mean (SE): −8.74 (4.03)
  Change from Baseline in UAS7 at Week 12: Mean (SD): −10.70 (8.61)
[4]
  Change from Baseline in UAS7 at Week 12: LS Mean (SE): −19.49 (3.03)
  Change from Baseline in UAS7 at Week 12: Mean (SD): −23.13 (10.61)
400 mg BID, Week 1
  Imputed non-responder n (%), UAS7 = 0: 0 n (%)
  Imputed non-responder n (%), UAS7 ≤6: 0 n (%)
  Non-responder n (%), UAS7 = 0: 32 (91.4) n (%)
  Non-responder n (%), UAS7 ≤6: 29 (82.9) n (%)
  OR for rilzabrutinib vs. placebo, UAS7 = 0: 3.242
  OR for rilzabrutinib vs. placebo, UAS7 ≤6: 3.183
  RRD (%) for rilzabrutinib vs. placebo, UAS7 = 0: 5.6 %
  RRD (%) for rilzabrutinib vs. placebo, UAS7 ≤6: 9.9 %
  Responder n (%), UAS7 = 0: 3 (8.6) n (%)
  Responder n (%), UAS7 ≤6: 6 (17.1) n (%)
400 mg BID, Week 2
  Imputed non-responder n (%), UAS7 = 0: 1 (2.9) n (%)
  Imputed non-responder n (%), UAS7 ≤6: 1 (2.9) n (%)
  Non-responder n (%), UAS7 = 0: 33 (94.3) n (%)
  Non-responder n (%), UAS7 ≤6: 31 (88.6) n (%)
  OR for rilzabrutinib vs. placebo, UAS7 = 0: 2.024
  OR for rilzabrutinib vs. placebo, UAS7 ≤6: 1.917
  RRD (%) for rilzabrutinib vs. placebo, UAS7 = 0: 2.5 %
  RRD (%) for rilzabrutinib vs. placebo, UAS7 ≤6: 4.4 %
  Responder n (%), UAS7 = 0: 2 (5.7) n (%)
  Responder n (%), UAS7 ≤6: 4 (11.4) n (%)
400 mg BID, Week 3
  Imputed non-responder n (%), UAS7 = 0: 0 n (%)
  Imputed non-responder n (%), UAS7 ≤6: 0 n (%)
  Non-responder n (%), UAS7 = 0: 32 (91.4) n (%)
  Non-responder n (%), UAS7 ≤6: 27 (77.1) n (%)
  OR for rilzabrutinib vs. placebo, UAS7 = 0: 3.036
  OR for rilzabrutinib vs. placebo, UAS7 ≤6: 2.894
  RRD (%) for rilzabrutinib vs. placebo, UAS7 = 0: 5.0 %
  RRD (%) for rilzabrutinib vs. placebo, UAS7 ≤6: 13.3 %
  Responder n (%), UAS7 = 0: 3 (8.6) n (%)
  Responder n (%), UAS7 ≤6: 8 (22.9) n (%)
400 mg BID, Week 4
  Imputed non-responder n (%), UAS7 = 0: 2 (5.7) n (%)
  Imputed non-responder n (%), UAS7 ≤6: 2 (5.7) n (%)
  Non-responder n (%), UAS7 = 0: 32 (91.4) n (%)
  Non-responder n (%), UAS7 ≤6: 25 (71.4) n (%)
  OR for rilzabrutinib vs. placebo, UAS7 = 0: 1.372
  OR for rilzabrutinib vs. placebo, UAS7 ≤6: 2.950
  RRD (%) for rilzabrutinib vs. placebo, UAS7 = 0: 1.9 %
  RRD (%) for rilzabrutinib vs. placebo, UAS7 ≤6: 15.8 %
  Responder n (%), UAS7 = 0: 3 (8.6) n (%)
  Responder n (%), UAS7 ≤6: 10 (28.6) n (%)
400 mg BID, Week 5
  Imputed non-responder n (%), UAS7 = 0: 2 (5.7) n (%)
  Imputed non-responder n (%), UAS7 ≤6: 2 (5.7) n (%)
  Non-responder n (%), UAS7 = 0: 31 (88.6) n (%)
  Non-responder n (%), UAS7 ≤6: 25 (71.4) n (%)
  OR for rilzabrutinib vs. placebo, UAS7 = 0: 4.254
  OR for rilzabrutinib vs. placebo, UAS7 ≤6: 6.525
  RRD (%) for rilzabrutinib vs. placebo, UAS7 = 0: 8.1 %
  RRD (%) for rilzabrutinib vs. placebo, UAS7 ≤6: 21.1 %
  Responder n (%), UAS7 = 0: 4 (11.4) n (%)
  Responder n (%), UAS7 ≤6: 10 (28.6) n (%)
400 mg BID, Week 6
  Imputed non-responder n (%), UAS7 = 0: 2 (5.7) n (%)
  Imputed non-responder n (%), UAS7 ≤6: 2 (5.7) n (%)
  Non-responder n (%), UAS7 = 0: 31 (88.6) n (%)
  Non-responder n (%), UAS7 ≤6: 26 (74.3) n (%)
  OR for rilzabrutinib vs. placebo, UAS7 = 0: 4.048
  OR for rilzabrutinib vs. placebo, UAS7 ≤6: 1.743
  RRD (%) for rilzabrutinib vs. placebo, UAS7 = 0: 7.6 %
  RRD (%) for rilzabrutinib vs. placebo, UAS7 ≤6: 8.8 %
  Responder n (%), UAS7 = 0: 4 (11.4) n (%)
  Responder n (%), UAS7 ≤6: 9 (25.7) n (%)
400 mg BID, Week 7
  Imputed non-responder n (%), UAS7 = 0: 2 (5.7) n (%)
  Imputed non-responder n (%), UAS7 ≤6: 2 (5.7) n (%)
  Non-responder n (%), UAS7 = 0: 31 (88.6) n (%)
  Non-responder n (%), UAS7 ≤6: 26 (74.3) n (%)
  OR for rilzabrutinib vs. placebo, UAS7 = 0: 4.254
  OR for rilzabrutinib vs. placebo, UAS7 ≤6: 2.622
  RRD (%) for rilzabrutinib vs. placebo, UAS7 = 0: 8.1 %
  RRD (%) for rilzabrutinib vs. placebo, UAS7 ≤6: 13.6 %
  Responder n (%), UAS7 = 0: 4 (11.4) n (%)
  Responder n (%), UAS7 ≤6: 9 (25.7) n (%)
400 mg BID, Week 8
  Imputed non-responder n (%), UAS7 = 0: 3 (8.6) n (%)
  Imputed non-responder n (%), UAS7 ≤6: 3 (8.6) n (%)
  Non-responder n (%), UAS7 = 0: 29 (82.9) n (%)
  Non-responder n (%), UAS7 ≤6: 22 (62.9) n (%)
  OR for rilzabrutinib vs. placebo, UAS7 = 0: 3.154
  OR for rilzabrutinib vs. placebo, UAS7 ≤6: 2.745
  RRD (%) for rilzabrutinib vs. placebo, UAS7 = 0: 10.7 %
  RRD (%) for rilzabrutinib vs. placebo, UAS7 ≤6: 18.5 %
  Responder n (%), UAS7 = 0: 6 (17.1) n (%)
  Responder n (%), UAS7 ≤6: 13 (37.1) n (%)
400 mg BID, Week 9
  Imputed non-responder n (%), UAS7 = 0: 7 (20.0) n (%)
  Imputed non-responder n (%), UAS7 ≤6: 7 (20.0) n (%)
  Non-responder n (%), UAS7 = 0: 29 (82.9) n (%)
  Non-responder n (%), UAS7 ≤6: 25 (71.4) n (%)
  OR for rilzabrutinib vs. placebo, UAS7 = 0: 2.249
  OR for rilzabrutinib vs. placebo, UAS7 ≤6: 2.797
  RRD (%) for rilzabrutinib vs. placebo, UAS7 = 0: 8.4 %
  RRD (%) for rilzabrutinib vs. placebo, UAS7 ≤6: 15.6 %
  Responder n (%), UAS7 = 0: 6 (17.1) n (%)
  Responder n (%), UAS7 ≤6: 10 (28.6) n (%)
400 mg BID, Week 10
  Imputed non-responder n (%), UAS7 = 0: 8 (22.9) n (%)
  Imputed non-responder n (%), UAS7 ≤6: 8 (22.9) n (%)
  Non-responder n (%), UAS7 = 0: 27 (77.1) n (%)
  Non-responder n (%), UAS7 ≤6: 26 (74.3) n (%)
  OR for rilzabrutinib vs. placebo, UAS7 = 0: 2.159
  OR for rilzabrutinib vs. placebo, UAS7 ≤6: 1.923
  RRD (%) for rilzabrutinib vs. placebo, UAS7 = 0: 10.6 %
  RRD (%) for rilzabrutinib vs. placebo, UAS7 ≤6: 9.9 %
  Responder n (%), UAS7 = 0: 8 (22.9) n (%)
  Responder n (%), UAS7 ≤6: 9 (25.7) n (%)
400 mg BID, Week 11
  Imputed non-responder n (%), UAS7 = 0: 7 (20.0) n (%)
  Imputed non-responder n (%), UAS7 ≤6: 7 (20.0) n (%)
  Non-responder n (%), UAS7 = 0: 30 (85.7) n (%)
  Non-responder n (%), UAS7 ≤6: 25 (71.4) n (%)
  OR for rilzabrutinib vs. placebo, UAS7 = 0: 2.551
  OR for rilzabrutinib vs. placebo, UAS7 ≤6: 1.853
  RRD (%) for rilzabrutinib vs. placebo, UAS7 = 0: 7.4 %
  Responder n (%), UAS7 = 0: 5 (14.3) n (%)
  Responder n (%), UAS7 ≤6: 10 (28.6) n (%)
400 mg BID, Week 12
  Imputed non-responder n (%), UAS7 = 0: 11 (31.4) n (%)
  Imputed non-responder n (%), UAS7 ≤6: 11 (31.4) n (%)
  Non-responder n (%), UAS7 = 0: 30 (85.7) n (%)
  Non-responder n (%), UAS7 ≤6: 28 (80.0) n (%)
  OR for rilzabrutinib vs. placebo, UAS7 = 0: 1.258
  OR for rilzabrutinib vs. placebo, UAS7 ≤6: 1.904
  RRD (%) for rilzabrutinib vs. placebo, UAS7 = 0: 2.6 %
  RRD (%) for rilzabrutinib vs. placebo, UAS7 ≤6: 7.9 %
  Responder n (%), UAS7 = 0: 5 (14.3) n (%)
  Responder n (%), UAS7 ≤6: 7 (20.0) n (%)
400 mg QPM, Week 1
  Imputed non-responder n (%), UAS7 = 0: 0 n (%)
  Imputed non-responder n (%), UAS7 ≤6: 0 n (%)
  Non-responder n (%), UAS7 = 0: 37 (100) n (%)
